Results on three molecules are retold here after patent publication US9751842B2, “Phthalazine derivatives” (Merck Patent GmbH, priority 2013, dated 2017).

Each structure is given as a SMILES string. pIC50: −log10 of the molar value.

Assay [1] has as its target T1, GST-tagged Tankyrase-2 (873-1166 aa) (Homo sapiens, UniProt Q9H2K2).
T1 construct: GST-tagged Tankyrase-2 (873-1166 aa)
Description: Tankyrase 2 autoparsylation HTRF enzyme assay. The following applies: HTRF autoparsylation, 90 min at 30° C; read-out: IC50 TNKS2 enzyme assay. It is filed as biochemical. The method, then: (§1) Biochemical Activity Testing of Tankyrase 1 and 2: Autoparsylation Assay
(§2) The autoparsylation assay is run in two steps: the enzymatic reaction in which GST-tagged Tankyrase-1, resp Tankyrase-2 transferred biotinylated ADP-ribose to itself from biotinylated NAD as co-substrate and the detection reaction where a time resolved FRET between cryptate labelled anti-GST bound to the GST tag of the enzyme and Xlent® labelled-streptavidin bound the biotin-parsylation residue is analysed. The autoparsylation activity was detectable directly via the increase in HTRF signal.
(§3) The autoparsylation assay is performed as 384-well HTRF® (Cisbio, Codolet, France) assay format in Greiner low volume nb 384-well microtiter plates and is used for high throughput screen. 250 nM GST-tagged Tankyrase-1 (1023-1327 aa), respectively about 250 nM GST-tagged Tankyrase-2 (873-1166 aa) and 5 μM bio-NAD (Biolog, Life science Inst., Bremen, Germany) as co-substrate are incubated in a total volume of 5 μl (50 mM HEPES, 4 mM Mg-chloride, 0.05% Pluronic F-68, 1.4 mM DTT, 0.5% DMSO, pH 7.7) in the absence or presence of the test compound (10 dilution concentrations) for 90 min at 30° C. The reaction is stopped by the addition of 1 μl 50 mM EDTA solution. 2 μl of the detection solution (1.6 μM SA-Xlent® (Cisbio, Codolet, France), 7.4 nM Anti-GST-K® (Eu-labelled anti-GST, Cisbio, Codolet, France) in 50 mM HEPES, 800 mM KF, 0.1° A. BSA, 20 mM EDTA, 0.1% CHAPS, pH 7.0) are added. After 1 h incubation at room temperature the HTRF is measured with an Envision multimode reader (Perkin Elmer LAS Germany GmbH) at excitation wavelength 340 nm (laser mode) and emission wavelengths 615 nm and 665 nm. The ratio of the emission signals is determined. The full value used is the inhibitor-free reaction. The pharmacological zero value used is XAV-939 (Tocris) in a final concentration of 5 μM. The inhibitory values (IC50) are determined using either the program Symyx Assay Explorer® or Condosseo® from GeneData.
In general terms: Time-resolved FRET reads energy transfer from a long-lived donor to a nearby acceptor.

The target of assay [2] is T2, GST-tagged Tnks-1 (1023-1327 aa) (Homo sapiens, UniProt O95271).
T2 construct: GST-tagged Tnks-1 (1023-1327 aa, prepared in-house); made in house
T2 sequence (O95271 1023-1327): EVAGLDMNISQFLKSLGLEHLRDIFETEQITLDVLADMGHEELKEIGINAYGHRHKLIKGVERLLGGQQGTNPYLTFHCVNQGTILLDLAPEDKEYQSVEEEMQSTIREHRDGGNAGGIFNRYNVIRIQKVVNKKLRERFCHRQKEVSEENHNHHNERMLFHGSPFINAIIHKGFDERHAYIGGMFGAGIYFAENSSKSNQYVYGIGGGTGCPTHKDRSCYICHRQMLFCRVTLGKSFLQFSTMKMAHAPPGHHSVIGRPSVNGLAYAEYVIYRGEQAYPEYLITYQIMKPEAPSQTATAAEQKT
The experiment in a line: TNKS1 activity ELISA (autoparsylation). It is filed as biochemical. The following applies: activity ELISA, 1 hour at 30° C; read-out: IC50 TNKS1 ELISA. Here is the method: (§4) Description of the TNKS1 and TNKS2 ELISA Assay
(§5) Biochemical Activity Testing of TNKS 1 and 2: Activity ELISA (Autoparsylation Assay)
(§6) For analysis of autoparsylation activity of TNKS 1 and 2 an activity ELISA is performed: In the first step GST tagged TNKS is captured on a Glutathione coated plate. Then the activity assay with biotinylated NAD is performed in the absence/presence of the compounds. During the enzymatic reaction GST tagged TNKS transfers biotinylated ADP-ribose to itself from biotinylated NAD as co-substrate. For the detection streptavidin-HRP conjugate is added that binds to the biotinylated TNKS and is thereby captured to the plates. The amount of biotinylated resp. autoparsylated TNKS is detected with a luminescence substrate for HRP. The level of the luminescence signal correlates directly with the amount of autoparsylated TNKS and therefore with activity of TNKS.
(§7) The activity ELISA is performed in 384 well Glutathione coated microtiter plates (Express capture Glutathione coated plate, Biocat, Heidelberg, Germany). The plates are pre-equilibrated with PBS. Then the plates are incubated with 50 μl 20 ng/well GST-tagged Tnks-1 (1023-1327 aa, prepared in-house), respectively GST-tagged Tnks-2 (873-1166 aa, prepared in-house) in assay buffer (50 mM HEPES, 4 mM Mg-chloride, 0.05% Pluronic F-68, 2 mM DTT, pH 7.7) overnight at 4° C. The plates are washed 3 times with PBS-Tween-20. The wells are blocked by incubation at room temperature for 20 minutes with 50 μl blocking buffer (PBS, 0.05% Tween-20, 0.5% BSA). Afterwards the plates are washed 3 times with PBS-Tween-20. The enzymatic reaction is performed in 50 μl reaction solution (50 mM HEPES, 4 mM Mg-chloride, 0.05% Pluronic F-68, 1.4 mM DTT, 0.5% DMSO, pH 7.7) with 10 μM bio-NAD (Biolog, Life science Inst., Bremen, Germany) as co-substrate in the absence or presence of the test compound (10 dilution concentrations) for 1 hour at 30° C. The reaction is stopped by 3 times washing with PBS-Tween-20. For the detection 50 μl of 20 ng/μl Streptavidin, HRP conjugate (MoBiTec, Göttingen, Germany) in PBS/0.05% Tween-20/0.01% BSA are added and the plates are incubated for 30 minutes at room temperature. After three times washing with PBS-Tween-20 50 μl of SuperSignal ELISA Femto Maximum sensitivity substrate solution (ThermoFisherScientific (Pierce), Bonn, Germany) are added. Following a 1 minute incubation at room temperature luminescence signals are measured with an Envision multimode reader (Perkin Elmer LAS Germany GmbH) at 700 nm. The full value used is the inhibitor-free reaction. The pharmacological zero value used is XAV-939 (Tocris) in a final concentration of 5 μM. The inhibitory values (IC50) are determined using either the program Symyx Assay Explorer® or Condosseo® from GeneData.
A general note: An ELISA detects its analyte on a solid surface through an enzyme-linked reagent.

Assay [3] addresses T3, GST-tagged Tnks-2 (873-1166 aa) (Homo sapiens, UniProt Q9H2K2).
T3 construct: GST-tagged Tnks-2 (873-1166 aa, prepared in-house); made in house
The experiment in a line: TNKS2 activity ELISA (autoparsylation). It is filed as biochemical. The following applies: activity ELISA, 1 hour at 30° C; read-out: IC50 TNKS2 ELISA. Here is the method: as §4, §5, §6, §7

Assay [4] has as its target T4, GST-tagged Tankyrase-1 (1023-1327 aa) (Homo sapiens, UniProt O95271).
T4 construct: GST-tagged Tankyrase-1 (1023-1327 aa)
The experiment in a line: Tankyrase 1 autoparsylation HTRF enzyme assay. It is filed as biochemical. The following applies: HTRF autoparsylation, 90 min at 30° C; read-out: IC50 TNKS1 enzyme assay. Here is the method:
as §1, §2, §3

In assay [5] the test system is Tankyrase (Axin2 level in DLD1 cells). The experiment in a line: Cellular inhibition of Tankyrase, Axin2 Luminex assay in DLD1 cells. It is filed as cell-based. The settings on record: Homo sapiens, DLD-1, 24 hours, Axin2 level increase, read-out: IC50 Cell assay. The method, then:
Measurement of Cellular Inhibition of Tankyrase
Since Tankyrases have been described to modulate cellular level of Axin2 (Huang et al., 2009; Nature) the increase of Axin2 level is used as read-out for determination of cellular inhibition of Tankyrases in a Luminex based assay.
Cells of the colon carcinoma cell line DLD1 are plated in 96 well plates with 1.5×10^4 cells per well. Next day, cells are treated with a serial dilution of test compound in seven steps as triplicates with a final DMSO concentration of 0.3%. After 24 hours, cells are lysed in lysis buffer (20 mM Tris/HCl pH 8.0, 150 mM NaCl, 1% NP40, 10% Glycerol) and lysates are cleared by centrifugation through a 96 well filter plate (0.65 μm). Axin2 protein is isolated from cell lysates by incubation with a monoclonal anti-Axin2 antibody (R&D Systems #MAB6078) that is bound to fluorescent carboxybeads. Then, bound Axin2 is specifically detected with a polyclonal anti-Axin2 antibody (Cell Signaling #2151) and an appropriate PE-fluorescent secondary antibody. The amount of isolated Axin2 protein is determined in a Luminex^200 machine (Luminex Corporation) according to the manufacturer's instruction by counting 100 events per well. Inhibition of Tankyrase by test compounds results in higher levels of Axin2 which directly correlates with an increase of detectable fluorescence. As controls cells are treated with solvent alone (neutral control) and with a Tankyrase reference inhibitor IWR-2 (3E-06 M) which refers as control for maximum increase of Axin2. For analysis, the obtained data are normalized against the untreated solvent control and fitted for determination of the EC50 values using the Assay Explorer software (Accelrys).

The next assay deals with DLD-1-cancer cells. The following applies: Huang et al., 2009, Nature; cited from earlier work.
A further assay relates to β-catenin. The settings on record: Huang et al., 2009, Nature; by increasing AXIN1 and AXIN2 levels; cited from earlier work.

T4 sequence (O95271 1023-1327): as above
T3 sequence (Q9H2K2 873-1166): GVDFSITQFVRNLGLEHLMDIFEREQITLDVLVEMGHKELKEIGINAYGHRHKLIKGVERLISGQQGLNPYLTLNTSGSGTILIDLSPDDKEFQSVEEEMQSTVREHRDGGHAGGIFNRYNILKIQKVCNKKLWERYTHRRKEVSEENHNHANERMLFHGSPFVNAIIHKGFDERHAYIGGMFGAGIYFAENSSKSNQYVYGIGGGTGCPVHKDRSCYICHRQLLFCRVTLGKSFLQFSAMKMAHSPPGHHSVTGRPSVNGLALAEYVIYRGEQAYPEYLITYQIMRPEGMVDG
T1 sequence (Q9H2K2 873-1166): as above

In general, pIC50 refers to −log10 of the IC50, conventionally taken in molar units. Regarding `O=C(CCc1ccccc1)Nc1nncc2ccccc12` [Compound A14, 3-phenyl-N-phthalazin-1-yl-propionamide], the pIC50 in assay [1] was 5.52 to 6.52; in assay [2], more than 6.52; in assay [3], more than 6.52; in assay [4], more than 6.52; in assay [5], 4.30 to 5.52.

As for `O=C(CCc1cccc(Cl)c1Cl)Nc1nncc2ccccc12` [Compound A17, 3-(2,3-dichloro-phenyl)-N-phthalazin-1-yl-propionamide], the pIC50 in assay [1] was 5.52 to 6.52; in assay [2], more than 6.52; in assay [3] it was more than 6.52; in assay [4] it was more than 6.52; in assay [5] it was 4.30 to 5.52.

`Oc1nc(-c2ccc(C(F)(F)F)cc2)nc2c1CSCC2` [XAV939]: in the assay with DLD-1-cancer cells, the “growth of DLD-1-cancer cells” value is “inhibits growth”. Also, the “Wnt-stimulated accumulation of β-catenin” value in the assay with β-catenin is “blocked”.
